Laboratory results taken from the supplement of paper PMC10307832.

Compound: CC1=CC(=C(N1C2=CC=C(C=C2)Cl)C)C(=O)CN3CCCCC3 [IU1-47] + O=C(CCCCCCC(=O)Nc1ccccc1)NO [Vorinostat] (partner 1 µM)
Experiment: relative viability (nuclei count vs DMSO), 5 days (fraction); higher = more cells survive
Details: first compound 8 µM
Procedure, shortened: (§1)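 Nuclei were stained with Hoechst during a one-step fixation (final 0.05% Triton X-100, 1% formaldehyde, 1 ug/ml Hoechst) carried out 5 days after dosing, then counted on 4× images. The cells, lung cancer lines in 1536-well plates, had been dosed by pin tool the day after seeding with one drug alone or a fixed anchor-drug dose plus five library-drug doses (not always all listed) in √10 steps. Relative viability is the nuclei count in treated wells divided by that in vehicle wells, and each value is the median of duplicate plates.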

Compared with NCI-H1648, HCC-78 is higher in relative viability: 0.399 for the first, 0.438 for the second.

Compound: CC1=CC(=C(N1C2=CC=C(C=C2)Cl)C)C(=O)CN3CCCCC3 [IU1-47] + Cc1nc(Nc2ncc(C(=O)Nc3c(C)cccc3Cl)s2)cc(N2CCN(CCO)CC2)n1 [Dasatinib] (partner 0.075 µM)
Experiment: as above
Details: first compound 0.08 µM
Procedure, shortened: as §1

Going from NCI-H522 to NCI-H1623, the relative viability falls from 0.807 to 0.588.

Going from NCI-H727 to NCI-H1650, the relative viability falls from 0.396 to 0.269.

First: NCI-H1993
Second: SW 1573
The relative viability of the first is lower: 0.497 for the first, 0.498 for the second.

Going from NCI-H838 to LCLC-103H, the relative viability rises from 0.31 to 0.49.

First: NCI-H520
Second: NCI-H2126
The relative viability of the first is lower: 0.197 for the first, 0.596 for the second.

Going from EMC-BAC-2 to NCI-H2085, the relative viability falls from 0.373 to 0.218.

Going from HCC-366 to NCI-H1666, the relative viability rises from 0.679 to 0.79.

Going from NCI-H596 to LK-2, the relative viability falls from 0.574 to 0.221.

Going from NCI-H2087 to NCI-H2342, the relative viability falls from 0.963 to 0.328.

Compared with SK-MES-1, H3255 is lower in relative viability: 0.376 for the first, 0.371 for the second.

Compared with COR-L23, COR-L 105 is lower in relative viability: 0.517 for the first, 0.307 for the second.

First: LOU-NH91
Second: ChaGo-K-1
The relative viability of the first is higher: 0.597 for the first, 0.524 for the second.

Compared with NCI-H2170, NCI-H2405 is lower in relative viability: 0.601 for the first, 0.21 for the second.

Going from HOP-62 to SW 900, the relative viability falls from 0.673 to 0.664.

Compared with LU99A, BEN is lower in relative viability: 0.756 for the first, 0.296 for the second.

Going from HCC-78 to NCI-H1792, the relative viability rises from 0.378 to 0.937.

In the case of NCI-H1563, the relative viability is reported as 0.532.

Same assay, conditions: first compound 0.253 µM

First: NCI-H522
Second: NCI-H1623
The relative viability of the first is higher: 0.872 for the first, 0.571 for the second.

Compared with NCI-H727, NCI-H1650 is lower in relative viability: 0.398 for the first, 0.311 for the second.

First: NCI-H1993
Second: SW 1573
The relative viability of the first is higher: 0.732 for the first, 0.524 for the second.

Compared with NCI-H838, LCLC-103H is higher in relative viability: 0.31 for the first, 0.471 for the second.

Going from NCI-H520 to NCI-H2126, the relative viability rises from 0.172 to 0.717.

First: EMC-BAC-2
Second: NCI-H2085
The relative viability of the first is higher: 0.336 for the first, 0.269 for the second.

Compared with HCC-366, NCI-H1666 is higher in relative viability: 0.694 for the first, 0.806 for the second.

First: NCI-H596
Second: LK-2
The relative viability of the first is higher: 0.617 for the first, 0.185 for the second.

Compared with NCI-H2087, NCI-H2342 is lower in relative viability: 0.973 for the first, 0.344 for the second.

Going from SK-MES-1 to H3255, the relative viability rises from 0.467 to 0.491.

Compared with COR-L23, COR-L 105 is lower in relative viability: 0.504 for the first, 0.303 for the second.

First: LOU-NH91
Second: ChaGo-K-1
The relative viability of the first is higher: 0.581 for the first, 0.557 for the second.

Going from NCI-H2170 to NCI-H2405, the relative viability falls from 0.737 to 0.234.

Compared with HOP-62, SW 900 is lower in relative viability: 0.652 for the first, 0.529 for the second.

Going from LU99A to BEN, the relative viability falls from 0.499 to 0.358.

Compared with HCC-78, NCI-H1792 is higher in relative viability: 0.389 for the first, 0.876 for the second.

NCI-H1563 showed a relative viability of 0.481.

Same assay, conditions: first compound 0.8 µM

First: NCI-H522
Second: NCI-H1623
The relative viability of the first is higher: 0.748 for the first, 0.588 for the second.

Going from NCI-H727 to NCI-H1650, the relative viability falls from 0.362 to 0.283.

Compared with NCI-H1993, SW 1573 is lower in relative viability: 0.651 for the first, 0.584 for the second.

Compared with NCI-H838, LCLC-103H is higher in relative viability: 0.32 for the first, 0.491 for the second.

Going from NCI-H520 to NCI-H2126, the relative viability rises from 0.203 to 0.724.

First: EMC-BAC-2
Second: NCI-H2085
The relative viability of the first is higher: 0.356 for the first, 0.242 for the second.

First: HCC-366
Second: NCI-H1666
The relative viability of the first is lower: 0.621 for the first, 0.761 for the second.

First: NCI-H596
Second: LK-2
The relative viability of the first is higher: 0.606 for the first, 0.264 for the second.

First: NCI-H2087
Second: NCI-H2342
The relative viability of the first is higher: 1.12 for the first, 0.32 for the second.

First: SK-MES-1
Second: H3255
The relative viability of the first is lower: 0.335 for the first, 0.385 for the second.

Going from COR-L23 to COR-L 105, the relative viability falls from 0.585 to 0.332.

First: LOU-NH91
Second: ChaGo-K-1
The relative viability of the first is lower: 0.605 for the first, 0.707 for the second.

First: NCI-H2170
Second: NCI-H2405
The relative viability of the first is higher: 0.558 for the first, 0.208 for the second.

Going from HOP-62 to SW 900, the relative viability falls from 0.709 to 0.7.

Compared with LU99A, BEN is lower in relative viability: 0.457 for the first, 0.394 for the second.

Going from HCC-78 to NCI-H1792, the relative viability rises from 0.324 to 1.03.

For NCI-H1563, the relative viability was 0.429.

Same assay, conditions: first compound 2.53 µM

First: NCI-H522
Second: NCI-H1623
The relative viability of the first is higher: 0.759 for the first, 0.591 for the second.

First: NCI-H727
Second: NCI-H1650
The relative viability of the first is lower: 0.289 for the first, 0.292 for the second.

First: NCI-H1993
Second: SW 1573
The relative viability of the first is lower: 0.548 for the first, 0.551 for the second.

Going from NCI-H838 to LCLC-103H, the relative viability rises from 0.3 to 0.465.

Going from NCI-H520 to EMC-BAC-2, the relative viability rises from 0.217 to 0.324.

Compared with NCI-H2085, HCC-366 is higher in relative viability: 0.228 for the first, 0.689 for the second.

Going from NCI-H1666 to NCI-H596, the relative viability falls from 0.793 to 0.595.

First: LK-2
Second: NCI-H2342
The relative viability of the first is lower: 0.24 for the first, 0.301 for the second.

First: SK-MES-1
Second: H3255
The relative viability of the first is higher: 0.405 for the first, 0.366 for the second.

Going from COR-L23 to COR-L 105, the relative viability falls from 0.537 to 0.248.

Going from LOU-NH91 to ChaGo-K-1, the relative viability rises from 0.608 to 0.643.

First: NCI-H2170
Second: NCI-H2405
The relative viability of the first is higher: 0.526 for the first, 0.206 for the second.

First: HOP-62
Second: SW 900
The relative viability of the first is lower: 0.531 for the first, 0.556 for the second.

Going from LU99A to HCC-78, the relative viability falls from 0.659 to 0.373.

First: NCI-H1792
Second: NCI-H1563
The relative viability of the first is higher: 0.556 for the first, 0.462 for the second.

Same assay, conditions: first compound 8 µM

Compared with NCI-H522, NCI-H1623 is lower in relative viability: 0.907 for the first, 0.555 for the second.

Compared with NCI-H727, NCI-H1650 is lower in relative viability: 0.442 for the first, 0.27 for the second.

First: NCI-H1993
Second: SW 1573
The relative viability of the first is lower: 0.571 for the first, 0.577 for the second.

Compared with NCI-H838, LCLC-103H is higher in relative viability: 0.281 for the first, 0.345 for the second.

Going from NCI-H520 to NCI-H2126, the relative viability rises from 0.166 to 0.601.

First: EMC-BAC-2
Second: NCI-H2085
The relative viability of the first is higher: 0.326 for the first, 0.252 for the second.

First: HCC-366
Second: NCI-H1666
The relative viability of the first is lower: 0.584 for the first, 0.676 for the second.

Compared with NCI-H596, LK-2 is lower in relative viability: 0.554 for the first, 0.28 for the second.

Going from NCI-H2087 to NCI-H2342, the relative viability falls from 0.681 to 0.307.

Compared with SK-MES-1, H3255 is higher in relative viability: 0.315 for the first, 0.387 for the second.

Compared with COR-L23, COR-L 105 is lower in relative viability: 0.551 for the first, 0.307 for the second.

First: LOU-NH91
Second: ChaGo-K-1
The relative viability of the first is lower: 0.534 for the first, 0.544 for the second.

Going from NCI-H2170 to NCI-H2405, the relative viability falls from 0.497 to 0.208.

Going from HOP-62 to SW 900, the relative viability rises from 0.564 to 0.742.

With LU99A the relative viability was 0.462.
